In patent US9220705B2, “Method of treating colorectal cancer” (priority 2013, dated 2015):
Entries after “also recorded” stand apart in the source; their conditions may differ. Like-named read-outs stand apart in the source and are kept apart here.

What was measured:
[1] = literature values; cited from earlier work
LoVo-OXP cells = assay: Cellular platinum uptake by GF-AAS; assay type: cell-based, human; settings: LoVo-OXP resistant cells, 5 μM, 6, 24, 48 h, FIG. 2 panel B, compared with LoVo
Protocol: LoVo and LoVo-OXP cells (2×10^6) were seeded in 75 cm^2 flasks in growth medium (20 ml). After 24 h, the medium was replaced and the cells incubated for different times (6, 24 or 48 h) in the presence of the tested complexes. Cell monolayers were washed twice with cold PBS and harvested. Samples were subjected to three freezing/thawing cycles at −80° C., and then vigorously vortexed. Aliquots were removed for the determination of protein content by the BioRad protein assay (BioRad). The samples were treated with 1 mL of highly pure nitric acid (Pt: ≦0.01 μg×kg^−1, TraceSELECT® Ultra, Sigma Chemical Co.) and transferred into a microwave teflon vessel. Subsequently, samples were submitted to a standard procedure using a speed wave MWS-3 Berghof instrument (Eningen, Germany). After cooling, each mineralized sample was analyzed for platinum by using a Varian AA Duo graphite furnace atomic absorption spectrometer (Varian, Palo Alto, Calif.; USA) at the wavelength of […]. The calibration curve was obtained using known concentrations of standard solutions purchased from Sigma Chemical Co.
It is well-known that cellular uptake is an important factor influencing drug efficacy. […] The intracellular platinum was quantified by means of GF-AAS analysis and the results, expressed as μg metal mg^−1 of cellular proteins, are summarized in FIG. 2.

[2] = tested on: 2008/C13*, LoVo/LoVo-OXP, LoVo MDR; assay: MTT cytotoxicity, comparison over the Table 2 cell lines; assay type: cell-based, human; settings: 2008 ovarian and LoVo colon sensitive cells
Protocol: (§1) After 24 h, the medium was removed and replaced with a fresh one containing the compound to be studied, at the appropriate concentration, dissolved in 0.9% sodium chloride solution just before use. Triplicate cultures were established for each treatment. After 72 h, each well was treated with […] of a 5 mg mL^−1 MTT saline solution and, after 5 h of incubation, 100 μL of a sodium dodecylsulfate (SDS) solution in 0.01 M HCl were added. After an overnight incubation, the inhibition of cell growth induced by the tested complexes was determined by measuring the absorbance of each well at 570 nm using a BioRad 680 microplate reader. Mean absorbance for each drug dose was expressed as percentage of the control and plotted vs. drug concentration. Dose-response curves were fitted and IC50 values were calculated with four parameter logistic model (4PL).
A LoVo cell line retaining a multidrug resistance phenotype was also considered (LoVo MDR). Cross-resistance profiles were evaluated by means of the resistance factor (RF), which is defined as the ratio between the IC50 value for the resistant cells and that arising from the sensitive cells (Table 2).

[3] = tested on: LoVo colorectal adenocarcinoma xenografts; assay: In vivo anticancer activity, oxaliplatin-sensitive colorectal xenograft; parameters: species or system BALB/c nu/nu mice; settings: LoVo xenograft mice, day 14 to day 30; FIG. 5 panel A
Protocol: (§2) LoVo and LoVo-OXP tumor xenografts were established in 6-week-old BALB/c nu/nu mice by injecting 1×10^7 tumor cells subcutaneously (100 μL in serum free medium) on the left dorsal flank. After 24 h from tumor implantation, mice were randomly divided into five groups (6 animals per group, 8 controls). Chemotherapy was delayed until the tumor became palpable (day 14). From day 14, 1 was dosed daily at 3 mg/kg ip whereas OXP was dosed daily at 2 mg/kg ip. Measurements of body weights and tumor volumes were recorded every 2 days until the experimental endpoint. The long axis (L) and the short axis (S) were measured with caliper, and the tumor volume (V) was calculated using the following equation: V=S×S×L/2. At day 30, animals were sacrificed, and the inhibition of tumor growth was determined by comparing the volume of the control group and the treatment group expressed as % referred to the control animals.
(§3) All the values are the means±S.D. of not less than three measurements. Multiple comparisons were made by Tukey-Kramer test (**p<0.01; *p<0.05).

[4] = tested on: panel of human tumor cell lines (A431, MCF-7, A375, HCT-15, SW480, CaCo-2, DLD-1); assay: MTT cytotoxicity, comparison over the Table 1 panel; assay type: cell-based; settings: average over seven cell lines of Table 1
Protocol: as §1
The cytotoxicity was evaluated by means of the MTT test for 72 h treatment with increasing concentrations of the tested compounds.

[5] = assay type: physicochemical
Description: Lipophilicity is usually expressed in terms of n-octanol/water partition coefficient, log Po/w, and correlates with cellular uptake by passive diffusion (Liu, X., et al., Pharm. Res. 2011, 28, 962-977).
Since RP-HPLC retention is due to partitioning between mobile (polar) and stationary (apolar) phases, there is a good correlation between capacity factor k′ (k′=(tR−t0)/t0, where t0 is the retention time for an unretained compound and tR is the retention time of the analyte) and partition coefficient (log Po/w=a+b log k′). Thus the HPLC procedure represents a good alternative to the time- and material-consuming shake-flask method. […] This implies that there are specific import (CTR1, OCT, etc.) or export (ATP7B) mechanisms which operate selectively on the different types of complexes.

Aqueous solubility = assay type: physicochemical; settings: compared to compound 2
[6] = tested on: Lewis lung carcinoma (LLC); assay: In vivo anticancer activity toward Lewis lung carcinoma; parameters: species or system C57BL mice; settings: LLC-bearing mice
Protocol: All studies involving animal testing were carried out in accordance with the ethical guidelines for animal research adopted by the University of Padua, acknowledging the Italian regulation and the European Directive 86/609/EEC as to animal welfare and protection and the related codes of practice. The mice were purchased from Charles River, Italy, and housed in steel cages under controlled environmental conditions (constant temperature, humidity, and 12 h dark/light cycle) and alimented with commercial standard feed and tap water ad libitum. Animals were observed daily, and body weight and food intake recorded. The Lewis lung carcinoma (LLC) cell line was purchased from ECACC, UK. The LLC cell line was maintained in D-MEM (Euroclone) supplemented with 10% heat-inactivated FBS (Euroclone), 10 mM L-glutamine, 100 U mL^−1 penicillin, and 100 μg mL^−1 streptomycin in a 5% CO2 air incubator at 37° C.
The Lewis lung carcinoma (LLC) was implanted i.m. as a 2×10^6 cell inoculum into the right hind leg of 8-week old male and female C57BL mice (24±3 g body weight). […] At day 15, animals were sacrificed, the legs were amputated at the proximal end of the femur, and the inhibition of tumor growth was determined according to the difference in weight of the tumor-bearing leg and the healthy leg of the animals expressed as % referred to the control animals. Body weight was measured every two days and was taken as a parameter for systemic toxicity.
All the values are the means±S.D. of not less than three measurements. Multiple comparisons were made by Tukey-Kramer test (**p<0.01; *p or °p<0.05).
The in vivo antitumor activity of compound 1 was evaluated in a model of solid tumor, the syngeneic murine Lewis lung carcinoma (LLC). […] For the assessment of the adverse side effects, changes in body weights of tumor-bearing mice were monitored daily (FIG. 3).

[7] = tested on: human ovarian A2780 cancer cell line; settings: Kasparkova 2010; cited from earlier work
[8] = tested on: LoVo-OXP colorectal adenocarcinoma xenografts; assay: In vivo anticancer activity, oxaliplatin-resistant colorectal xenograft; parameters: species or system BALB/c nu/nu mice; settings: LoVo-OXP xenograft mice, day 14 to day 30; FIG. 5 panel B
Protocol: as §2, §3

Structure (SMILES)	log Po/w [1]	intracellular platinum accumulation (LoVo-OXP cells)	cytotoxic activity towards sensitive lines compared with reference drugs [2]	body weight loss [3]	average cytotoxic activity compared with reference drugs [4]	log Po/w [5]	aqueous solubility (Aqueous solubility)	body weight loss compared with cisplatin ([6]; 1.5 mg kg^−1 each, FIG. 3)	tolerability compared with cisplatin ([6]; daily i.p.)	adverse side effects (body weight loss) compared with cisplatin ([6]; compound 1 at 3 mg kg^−1, FIG. 3)	cytotoxicity, fold greater than cisplatin [7]	body weight loss [8]
[Cl][Pt]1([Cl])[NH][C@@H]2CCCC[C@H]2[NH]1 [Compound 2, [SP-4-2]-dichloro[(1R,2R)-1,2-cyclohexanediamine-N^1,N^2]platinum]	−1.40	remarkably decreased; also recorded: decreases remarkably	–	–	–	–	–	–	–	–	–	–
[Cl][Pt]1([Cl])[NH]C2CCC(CC2)[NH]1 [Compound 1, [SP-4-2-(cis)]-dichloro(1,4-cyclohexanediamine-N,N′)platinum]	–	–	as good as oxaliplatin and better than cisplatin	roughly equivalent to that obtained by using the parent drug oxaliplatin	slightly more effective than oxaliplatin	−1.57±0.10	enhanced aqueous solubility compared to compound 2	about half that caused by cisplatin	better tolerated than cisplatin	smaller adverse side effects than cisplatin	3.4-5.4	roughly equivalent to that obtained by using the parent drug oxaliplatin
